According to patent US8653095B2, “Small molecules with antimalarial activity” (Radix Pharmaceuticals, Inc., priority 2011, dated 2014):
“Also recorded” adds a separate entry of the source.

Key:
P. falciparum DD2 = assay: In vitro blood stage antimalarial efficacy, [3H]hypoxanthine uptake, strain DD2; assay type: cell-based; details: Plasmodium falciparum, read-out: IC50
Experimental: (§1) In Vitro Blood Stage Antimalarial Efficacy Evaluation. New compounds were tested against a panel of strains of P. falciparum.
(§2) Test compounds were initially dissolved in DMSO and diluted 400 fold in RPMI 1640 culture medium supplemented with 25 mM Hepes, 32 mM NaHCO3 and 10% Albumax I (Gibco, NY). These solutions were subsequently serially diluted two-fold with a Beckman Biomek® 1000 Robot (Fullerton, Calif.) over 11 different concentrations. The parasites were exposed to serial dilutions of each compound for 48 hrs and incubated at 37° C. with 5% O2, 5% CO2 and 90% N2 prior to the addition of [^3H]hypoxanthine. After a further incubation of 18 hrs, parasite DNA was harvested from each microtiter well using Packard Filtermate™ 196 Harvester (Meriden, Conn.) onto glass filters. Uptake of [^3H]hypoxanthine was measured with a Packard TopCount Liquid Scintillation Counter (Packard Instrument Co.).

P. falciparum K1 = assay: In vitro blood stage antimalarial efficacy, [3H]hypoxanthine uptake, strain K1; assay type: cell-based; details: Plasmodium falciparum, read-out: IC50
Experimental: as §1, §2

[1] = test system: chloroquine-resistant FVO strain of P. falciparum; assay: Efficacy against blood stages of P. falciparum in Aotus monkeys; assay type: in vivo; details: oral for 3 days
Experimental: In Vivo Efficacy Studies in Aotus Monkey Model. The monkeys selected for the study had active infections of the chloroquine-resistant FVO strain of P. falciparum. Once parasitemias reached 5,000/μl (or as deemed appropriate by the attending veterinarian), they were treated orally with Formula B or Formula C at 2, 4, 8, or 16 mg/kg/day for 3 days. For compound Formula B, the dosage needed to cure 50% of animals was 4 mg/kg/day and the dosage needed to cure 100% of animals was 16 mg/kg/day. For compound Formula C, the 50% curative dose was 2 mg/kg/day and the 100% curative dose was 8 mg/kg/day (Table 7).
Malaria-naive Panamanian owl monkeys (Aotus lemurinus lemurinus) were used as hosts for chioroquine-resistant P. falciparum. The chloroquine-resistant Vietnam Smith strain was used in the initial experiments. In subsequent studies, a recrudescent isolate from a Vietnam Smith strain infected Aotus monkey treated with chloroquine was used.
The inoculum size produced a parasitemia of at least 5×10^3/mm^3 by the fifth day postinoculation, at which time treatment was begun. Stock solutions of water-soluble drug were prepared at appropriate concentrations and maintained at 4° C. during the course of treatment. A suspension of water-insoluble drugs was prepared in 0.3% methylcellulose just prior to use. All drugs were administered by gastric intubation in a volume of 7.0 ml, followed by a 7.0-mi rinse with either water or 0.3% methylcellulose. Test drug was given orally for either three or seven consecutive days. In several experiments, the putative resistance modulator was given three times per day (8:00 AM, noon, and 4:00 PM) for three or seven days.
Giemsa-stained blood smears were prepared from all animals and examined daily beginning the day after inoculation until parasitemia was cleared and for at least seven days thereafter. At that time, blood films were examined twice a week up to 100 days after treatment. Thick blood films were considered negative if no parasites were seen after examination for at least five min. Ten or less parasites on a thick blood film were recorded as <10. Parasitemia was enumerated and expressed as number of parasites/mm^3. Treated animals were observed twice a day for signs of drug toxicity, as evidenced by abnormal behavior, anorexia, diarrhea, or vomiting. Necropsies were per formed on all animals that died. In conducting the research described in this report, the investigators adhered to the Guide for the Care and Use of Laboratory Animals, as promulgated by the National Research Council.
The outcome of each infection was compared with untreated controls and monkeys treated with chloroquine. […]

P. falciparum 3D7 = assay: In vitro blood stage antimalarial efficacy, [3H]hypoxanthine uptake, strain 3D7; assay type: cell-based; details: Plasmodium falciparum, read-out: IC50
Experimental: as §1, §2

P. falciparum TM4 = assay: In vitro blood stage antimalarial efficacy, [3H]hypoxanthine uptake, strain TM4; assay type: cell-based; details: Plasmodium falciparum; read-out: IC50
Experimental: as §1, §2

Plasmodium berghei = assay: Oral prophylactic test in mice; assay type: in vivo; details: for Mice infected and treated/Mice surviving day 60: oral; for Protection from malaria (oral prophylactic activity): mice, single dose of 0.5 mg/kg within 2 days pre-infection through 2 days post-infection
Experimental: Derivative compounds were also tested for oral prophylactic activity.
CD-I male or female mice, 5 weeks of age, were infected with 5×10^4 parasitized erythrocytes of Plasmodium berghei strain. Blood films were taken on day +6 and weekly thereafter until day+30. […]

P. falciparum TM6 = assay: In vitro blood stage antimalarial efficacy, [3H]hypoxanthine uptake, strain TM6; assay type: cell-based; details: Plasmodium falciparum; read-out: IC50
Experimental: as §1, §2

Plasmodium cynomolgi = assay: Radical curative activity in relapsed Rhesus monkeys; assay type: in vivo; details: for Monkeys cured: co-administered with chloroquine; for Days post-treatment (relapse) / Results (radical curative test): with CQ 10 mg/kg/day for 7 days, one value per monkey
Source text: Compounds with antihypnozoite activity will delay the relapse or radically cure the infection. […] Relapse was expected in the control group. Relapse in the treated group indicates failure of the test compounds. […] After standard treatment, blood smears were monitored daily for 4 consecutive days of negative results and 2 times weekly for 2 weeks.

P. falciparum V1S = assay: microbe, parasite or virus in culture; assay type: cell-based; details: Plasmodium falciparum
Experimental: as §1, §2

P. falciparum PH3 = assay: In vitro blood stage antimalarial efficacy, [3H]hypoxanthine uptake, strain PH3; assay type: cell-based; details: Plasmodium falciparum; read-out: IC50
Experimental: as §1, §2

[2] = test system: P. falciparum African NF54 strain; assay: In vivo efficacy in immunocompromised BXN mice infected with P. falciparum NF54; details: Plasmodium falciparum, 96 h, oral once daily for 4 days
Source text: (§3) Antimalarial efficacy data was obtained by evaluating new compounds in two rodent models: (I) Swiss mice infected with rodent malaria strain P. berghei; (II) Immunocompromised BXN mice infected with either the sensitive P. falciparum African NF54 strain or the multi-drug resistant P. falciparum Thailand T24 strain.

[3] = test system: multi-drug resistant P. falciparum Thailand T24 strain; assay: In vivo efficacy in immunocompromised BXN mice infected with P. falciparum T24; details: Plasmodium falciparum, 96 h, oral once daily for 4 days
Source text: as §3

[4] = day of treatment 1, dose 0.5 mg/kg
[5] = day of treatment 1, dose 2 mg/kg
[6] = day of treatment 1, dose 8 mg/kg
[7] = day of treatment 1, dose 32 mg/kg
[8] = day of treatment 2, dose 0.5 mg/kg
[9] = day of treatment 2, dose 2 mg/kg
[10] = day of treatment 2, dose 8 mg/kg
[11] = day of treatment 2, dose 32 mg/kg
[12] = day of treatment −1, dose 0.5 mg/kg
[13] = day of treatment −1, dose 2 mg/kg
[14] = day of treatment −1, dose 8 mg/kg
[15] = day of treatment −1, dose 32 mg/kg
[16] = day of treatment −2, dose 0.5 mg/kg
[17] = day of treatment −2, dose 2 mg/kg
[18] = day of treatment −2, dose 8 mg/kg
[19] = day of treatment −2, dose 32 mg/kg
[20] = Drug 2 at 15 mg/kg PO 1 daily for 3 days
[21] = Drug 2 at 30 mg/kg PO 1 daily for 3 days

SMILES: CC[C@@H](N)[C@H](O)[C@H](O)[C@H](COC)[C@@H]1CC[C@@]23CC24c2nc5ccc(OC)cc5cc2C(=O)N[C@H]4CN13 (some centres unmarked) [Formula B]
- IC50 (P. falciparum DD2): 0.27 ± 0.07 nM
- IC50 (P. falciparum K1): 0.22 ± 0.05 nM
- Dosage needed to cure 50% of animals (50% curative dose) [1]: 4 mg/kg/day
- Dosage needed to cure 100% of animals (100% curative dose) [1]: 16 mg/kg/day
- IC50 (P. falciparum 3D7): 0.19 ± 0.04 nM
- IC50 (P. falciparum TM4): 0.23 ± 0.04 nM
- Mice infected and treated/Mice surviving day 60 (Plasmodium berghei; [4]): 5/5
- Mice infected and treated/Mice surviving day 60 (Plasmodium berghei; [5]): 5/5
- Mice infected and treated/Mice surviving day 60 (Plasmodium berghei; [6]): 5/5
- Mice infected and treated/Mice surviving day 60 (Plasmodium berghei; [7]): 5/5
- Mice infected and treated/Mice surviving day 60 (Plasmodium berghei; [8]): 5/5
- Mice infected and treated/Mice surviving day 60 (Plasmodium berghei; [9]): 5/5
- Mice infected and treated/Mice surviving day 60 (Plasmodium berghei; [10]): 5/5
- Mice infected and treated/Mice surviving day 60 (Plasmodium berghei; [11]): 5/5
- Mice infected and treated/Mice surviving day 60 (Plasmodium berghei; [12]): 5/5
- Mice infected and treated/Mice surviving day 60 (Plasmodium berghei; [13]): 5/5
- Mice infected and treated/Mice surviving day 60 (Plasmodium berghei; [14]): 5/5
- Mice infected and treated/Mice surviving day 60 (Plasmodium berghei; [15]): 5/5
- Mice infected and treated/Mice surviving day 60 (Plasmodium berghei; [16]): 5/5
- Mice infected and treated/Mice surviving day 60 (Plasmodium berghei; [17]): 5/5
- Mice infected and treated/Mice surviving day 60 (Plasmodium berghei; [18]): 5/5
- Mice infected and treated/Mice surviving day 60 (Plasmodium berghei; [19]): 5/5
- Protection from malaria (oral prophylactic activity) (Plasmodium berghei): completely protected
- IC50 (P. falciparum TM6): 0.18 ± 0.03 nM
- Monkeys cured (Plasmodium cynomolgi; 15 mg/kg/day level): one out of two monkeys
- Monkeys cured (Plasmodium cynomolgi; 30 mg/kg/day level): all monkeys
- Days post-treatment (relapse) (Plasmodium cynomolgi; [20]): 42 days and no relapse
- Results (radical curative test) (Plasmodium cynomolgi; [20]): delayed relapse; also recorded: radical curative
- Days post-treatment (relapse) (Plasmodium cynomolgi; [21]): no relapse
- Results (radical curative test) (Plasmodium cynomolgi; [21]): radical curative
- IC50 (P. falciparum V1S): 0.26 ± 0.05 nM
- IC50 (P. falciparum PH3): 0.17 ± 0.04 nM
- ED50 [2]: 0.24 mg/kg
- ED50 [3]: 0.27 mg/kg

SMILES: COC[C@@H]([C@@H](O)[C@@H](O)[C@H](N)Cc1ccccc1)[C@@H]1CC[C@@]23CC24c2nc5ccc(OC)cc5cc2C(=O)N[C@H]4CN13 (some centres unmarked) [Formula C]
- IC50 (P. falciparum DD2): 0.16 ± 0.03 nM
- IC50 (P. falciparum K1): 0.25 ± 0.04 nM
- Dosage needed to cure 50% of animals (50% curative dose) [1]: 2 mg/kg/day
- Dosage needed to cure 100% of animals (100% curative dose) [1]: 8 mg/kg/day
- IC50 (P. falciparum 3D7): 0.22 ± 0.05 nM
- IC50 (P. falciparum TM4): 0.31 ± 0.07 nM
- Mice infected and treated/Mice surviving day 60 (Plasmodium berghei; [4]): 5/5
- Mice infected and treated/Mice surviving day 60 (Plasmodium berghei; [5]): 5/5
- Mice infected and treated/Mice surviving day 60 (Plasmodium berghei; [6]): 5/5
- Mice infected and treated/Mice surviving day 60 (Plasmodium berghei; [7]): 5/5
- Mice infected and treated/Mice surviving day 60 (Plasmodium berghei; [8]): 5/5
- Mice infected and treated/Mice surviving day 60 (Plasmodium berghei; [9]): 5/5
- Mice infected and treated/Mice surviving day 60 (Plasmodium berghei; [10]): 5/5
- Mice infected and treated/Mice surviving day 60 (Plasmodium berghei; [11]): 5/5
- Mice infected and treated/Mice surviving day 60 (Plasmodium berghei; [12]): 5/5
- Mice infected and treated/Mice surviving day 60 (Plasmodium berghei; [13]): 5/5
- Mice infected and treated/Mice surviving day 60 (Plasmodium berghei; [14]): 5/5
- Mice infected and treated/Mice surviving day 60 (Plasmodium berghei; [15]): 5/5
- Mice infected and treated/Mice surviving day 60 (Plasmodium berghei; [16]): 5/5
- Mice infected and treated/Mice surviving day 60 (Plasmodium berghei; [17]): 5/5
- Mice infected and treated/Mice surviving day 60 (Plasmodium berghei; [18]): 5/5
- Mice infected and treated/Mice surviving day 60 (Plasmodium berghei; [19]): 5/5
- Protection from malaria (oral prophylactic activity) (Plasmodium berghei): completely protected
- IC50 (P. falciparum TM6): 0.09 ± 0.02 nM
- Monkeys cured (Plasmodium cynomolgi; 15 mg/kg/day level): one out of two monkeys
- Monkeys cured (Plasmodium cynomolgi; 30 mg/kg/day level): all monkeys
- Days post-treatment (relapse) (Plasmodium cynomolgi; [20]): 53 days and no relapse
- Results (radical curative test) (Plasmodium cynomolgi; [20]): delayed relapse; also recorded: radical curative
- Days post-treatment (relapse) (Plasmodium cynomolgi; [21]): no relapse
- Results (radical curative test) (Plasmodium cynomolgi; [21]): radical curative
- IC50 (P. falciparum V1S): 0.12 ± 0.03 nM
- IC50 (P. falciparum PH3): 0.19 ± 0.04 nM
- ED50 [2]: 0.2 mg/kg
- ED50 [3]: 0.18 mg/kg
